The Kinase Knowledgebase extract (Sharma et al. 2016)

Molecular target: ROCK2 (human) (UniProt O75116)
Assay: Enzyme Assay

Chain of ROCK2 (human) (O75116 whole entry, looked up): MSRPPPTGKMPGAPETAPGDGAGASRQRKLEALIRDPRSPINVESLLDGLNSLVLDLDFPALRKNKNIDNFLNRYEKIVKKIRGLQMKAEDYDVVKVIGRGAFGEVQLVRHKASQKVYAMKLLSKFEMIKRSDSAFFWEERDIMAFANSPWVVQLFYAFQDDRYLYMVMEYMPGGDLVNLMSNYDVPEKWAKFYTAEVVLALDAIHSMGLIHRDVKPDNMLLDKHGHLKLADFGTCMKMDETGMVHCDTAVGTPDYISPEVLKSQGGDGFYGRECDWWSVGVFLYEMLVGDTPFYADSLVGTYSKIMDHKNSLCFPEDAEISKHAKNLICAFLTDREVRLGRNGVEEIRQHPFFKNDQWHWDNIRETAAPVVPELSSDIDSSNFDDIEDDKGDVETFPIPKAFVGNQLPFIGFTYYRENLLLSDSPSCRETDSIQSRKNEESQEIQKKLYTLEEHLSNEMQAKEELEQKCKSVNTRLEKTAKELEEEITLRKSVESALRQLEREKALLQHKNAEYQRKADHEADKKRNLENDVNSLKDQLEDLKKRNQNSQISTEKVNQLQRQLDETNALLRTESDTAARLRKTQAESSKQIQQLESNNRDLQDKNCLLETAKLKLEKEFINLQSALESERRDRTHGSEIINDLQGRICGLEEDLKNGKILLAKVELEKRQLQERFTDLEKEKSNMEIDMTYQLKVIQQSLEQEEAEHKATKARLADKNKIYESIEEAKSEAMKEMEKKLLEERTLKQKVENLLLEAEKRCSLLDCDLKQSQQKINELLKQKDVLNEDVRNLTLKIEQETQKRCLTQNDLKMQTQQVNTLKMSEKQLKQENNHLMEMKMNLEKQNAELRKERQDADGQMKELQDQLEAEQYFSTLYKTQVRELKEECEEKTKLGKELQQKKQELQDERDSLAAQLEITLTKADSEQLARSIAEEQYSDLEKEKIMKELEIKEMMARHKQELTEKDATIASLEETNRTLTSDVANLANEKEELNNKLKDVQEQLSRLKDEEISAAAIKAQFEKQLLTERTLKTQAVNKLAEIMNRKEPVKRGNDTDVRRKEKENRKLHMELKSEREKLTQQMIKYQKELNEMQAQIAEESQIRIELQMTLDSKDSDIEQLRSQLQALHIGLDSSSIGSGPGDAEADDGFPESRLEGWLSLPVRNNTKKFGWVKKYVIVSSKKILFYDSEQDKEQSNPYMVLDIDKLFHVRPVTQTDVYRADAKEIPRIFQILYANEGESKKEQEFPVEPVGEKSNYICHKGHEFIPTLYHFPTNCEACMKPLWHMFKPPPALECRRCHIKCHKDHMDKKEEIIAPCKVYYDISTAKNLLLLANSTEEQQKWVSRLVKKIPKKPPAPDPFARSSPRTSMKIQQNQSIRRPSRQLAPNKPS

Row | IC50 | Compound
1 | < 100 nM | NCc1ccc(C(=O)Nc2ccncc2F)cc1-c1cccc(C(=O)Nc2ccc(SCC3CCOC3=O)cc2)c1 (stereo unspecified)
2 | < 100 nM | CC1(C)COC(=O)C1Sc1ccc(NC(=O)c2cccc(-c3cc(C(=O)Nc4ccncc4F)ccc3CN)c2)cc1 (stereo unspecified)
3 | < 100 nM | CN(c1ccc(NC(=O)c2cccc(-c3cc(C(=O)Nc4ccncc4F)ccc3CN)c2)cc1)C1CCOC1=O (stereo unspecified)
4 | < 100 nM | NCc1ccc(C(=O)Nc2ccncc2F)cc1-c1cccc(C(=O)Nc2cccc(SC3CCOC3=O)c2)c1 (stereo unspecified)
5 | < 100 nM | NCc1ccc(C(=O)Nc2ccncc2)cc1-c1cccc(NC(=O)c2ccc(SC3CCOC3=O)cc2)c1 (stereo unspecified)
6 | < 100 nM | NCc1ccc(C(=O)Nc2ccncc2F)cc1-c1cccc(C(=O)Nc2ccc(SC3CCOC3=O)cc2F)c1 (stereo unspecified)
7 | < 100 nM | NCc1ccc(C(=O)Nc2ccncc2F)cc1-c1cccc(C(=O)Nc2ccc(SC3CCOC3=O)cc2)c1 (stereo unspecified)

The next lines start with the compound.

Row | Compound | IC50
8 | NCc1ccc(C(=O)Nc2ccncc2F)cc1-c1cccc(C(=O)Nc2ccc(CNC3CCOC3=O)cc2)c1 (stereo unspecified) | < 100 nM
9 | Cc1cc(NC2CCOC2=O)ccc1NC(=O)c1cccc(-c2cc(C(=O)Nc3ccncc3F)ccc2CN)c1 (stereo unspecified) | < 100 nM
10 | NCc1ccc(C(=O)Nc2ccncc2F)cc1-c1cccc(C(=O)Nc2ccc(OC3CCOC3=O)cc2)c1 (stereo unspecified) | < 100 nM
11 | NCc1ccc(C(=O)Nc2ccncc2F)cc1-c1cccc(C(=O)Nc2ccc(NC3CCOC3=O)cc2)c1 (stereo unspecified) | < 100 nM
12 | NCc1ccc(C(=O)Nc2ccncc2F)cc1-c1cccc(C(=O)Nc2ncc(NC3CCOC3=O)s2)c1 (stereo unspecified) | < 100 nM
13 | NCc1ccc(C(=O)Nc2ccncc2F)cc1-c1cccc(C(=O)Nc2ccc(SC3COC(=O)C3)cc2)c1 (stereo unspecified) | < 100 nM
14 | NCc1ccc(C(=O)Nc2ccncc2F)cc1-c1cccc(NC(=O)c2ccc(NC3CCOC3=O)cc2)c1 (stereo unspecified) | < 100 nM
15 | CC1CC(Sc2ccc(NC(=O)c3cccc(-c4cc(C(=O)Nc5ccncc5F)ccc4CN)c3)cc2)C(=O)O1 (stereo unspecified) | < 100 nM
16 | NCc1ccc(C(=O)Nc2ccncc2F)cc1-c1cccc(NC(=O)c2ccc(SC3CCOC3=O)cc2)c1 (stereo unspecified) | < 100 nM
